In patent publication US20080319084A1, “Wrinkling Prevention or Remedy with Adam Activity Inhibiting Substance” (Shiseido Company, Ltd., priority 2004, published 2008):

What was measured:
[1] = system: finely wrinkled mouse model; assay: Anti-wrinkling effects of medicine application on finely wrinkled mouse model (tape stripping); format: in vivo, hairless mouse (HR-1); set-up: key to Wrinkling suppressing effects / Epidermal hyperplasia suppressing effects / Dermal hyperplasia suppressing effects: O: Remedied.; Δ: No alteration was found.; x: Aggravated; conditions: for Dermal hyperplasia suppressing effects / Epidermal hyperplasia suppressing effects / Wrinkling suppressing effects: 100 μl applied to skin after each tape stripping, 2 mM TAPI-1, 1% CGS27023A, 10% glycerol, 1% oleic acid; for Dermal hyperplasia suppressing effects / Epidermal hyperplasia suppressing effects: four weeks, HE-stained slices; for Wrinkling suppressing effects: up to four weeks; for hyperplasia of the epidermis and the dermis (in words) / wrinkle formation (in words): finely wrinkled mouse model, topical application
Protocol: It is considered that, in cases where the skin barrier is weakened or disrupted by various primary factors, such as a decrease in sebum and face washing, and water evaporation from the skin surface increases, the skin dries, and the fine wrinkles are formed. Therefore, tape stripping was repeatedly performed on the skin of a hairless mouse, the stratum corneum of thus peeled off, and the skin barrier was broken. In this manner, a finely wrinkled mouse model was prepared. Specifically, the tape stripping with cellophane adhesive tapes was performed on the skin on the left side of the dorsal section of a hairless mouse (HR-1, male, six weeks of age, supplied by Hoshino Experimental Animals) with the number of times of the tape stripping being adjusted such that a transepidermal water loss (TEWL) (as measured by use of a water evaporation quantity measuring apparatus MEECO, supplied by Meeco Co., U.S.A) might fall within the range of 4 mg/cm^2/h to 6 mg/cm^2/h. Ordinarily, at the initial stage, the tape stripping was iterated approximately four times. At the final stage, the tape stripping was iterated seven to eight times. The tape stripping was performed in three stages per week and was continued for four weeks. The right side of the dorsal section of the hairless mouse was left to stand as a non-treatment area. Studies were made with respect to the anti-wrinkling effects of the application of various medicines, which were listed in Table 2 below, on the finely wrinkled mouse model. Specifically, the tape stripping was performed on a hairless mouse in the manner described above. After each tape stripping processing, 100 μl of each of the medicines listed in Table 2 was applied to the skin of the hairless mouse. FIG. 4A is a diagram showing replica images of skins having been applied with different medicines in the finely wrinkled mouse model, which replica images have been taken at stages one week, two weeks, and four weeks after the application of each of the medicines. FIG. 4B is a diagram showing microscopic photographs of skin tissue slices of the skins at the stage four weeks after the application of each of the medicines, which skin tissue slices have been stained with HE (hematoxylin-eosin).

Photo-aged mouse model = assay: Wrinkle formation in Photo-aged mouse model (UV light irradiation); format: in vivo
Protocol: FIG. 2A is a diagram showing replica images of the mouse skin having been subjected to the tape stripping in the manner described above. FIG. 2B is a diagram showing microscopic photographs of a skin tissue slice of the mouse skin, which skin tissue slice has been stained with HE (hematoxylin-eosin). As illustrated in the replica images (FIG. 2A), skin ditches became deep at the stage 24 hours (24 h) after the beginning of the tape stripping and at the stage 48 hours (48 h) after the beginning of the tape stripping. At the stage one week (1 W) after the beginning of the tape stripping, the directions of the skin ditches coincided with predetermined directions. At the stage four weeks (4 W) after the beginning of the tape stripping, a wrinkle-like appearance occurred. […] At the stage two weeks (2 W) after the beginning of the tape stripping, the epidermal hyperplasia was kept. Table 1 shown below lists morphological alterations, histological alterations, and the like, of the finely wrinkled mouse model having been prepared in the manner described above together with the morphological alterations, histological alterations, and the like, of a Photo-aged mouse model having been prepared with UV light irradiation (for 10 weeks).

[2] = system: finely wrinkled mouse model; assay: Evaluation of anti-wrinkling effects of ADAM activity inhibiting substances in finely wrinkled mouse model (visual score, wrinkle area); format: in vivo, hairless mouse (HR-1); conditions: for mean value of the wrinkle score (visual judgment, 0 no wrinkle to 3 deep wrinkles): after four weeks, 1 mM TAPI-1 or 1% 4-methoxybenzohydroxamic acid in 50% aqueous ethanol, 100 μl after each tape stripping, vehicle 1.17; for mean value of the wrinkle area (%) versus vehicle: replica analysis after four weeks, 1 mM TAPI-1 or 1% 4-methoxybenzohydroxamic acid
Protocol: The anti-wrinkling effects of TAPI-1 and 4-methoxybenzohydroxamic acid acting as the ADAM activity inhibiting substances were studied by use of the finely wrinkled mouse model.
Specifically, on the skin on the left side of the dorsal section of a hairless mouse (HR-1, male, six weeks of age, supplied by Hoshino Experimental Animals), the tape stripping was performed in three stages per week and was continued for four weeks such that the transepidermal water loss (TEWL) (as measured by use of a water evaporation quantity measuring apparatus MEECO, supplied by Meeco Co., U.S.A) might fall within the range of 4 mg/cm^2/h to 8 mg/cm^2/h. Immediately after each stage of the tape stripping processing had been performed, 100 μl of TAPI-1 or 4-methoxybenzohydroxamic acid was applied to the skin on the left side of the dorsal section of the mouse. At this time, 4-methoxybenzohydroxamic acid was dissolved in a 50% aqueous ethanol solution such that the concentration of 4-methoxybenzohydroxamic acid might become equal to 1%, and 4-methoxybenzohydroxamic acid was used in the form of the resulting solution. Also, TAPI-1 (supplied by Peptide Research Institute) was evaluated at a concentration of 1 mM. Further, as a negative control, a 50% aqueous ethanol solution (i.e., a vehicle) was applied in the same manner as that described above.
The state of occurrence of wrinkles after a period of four weeks had elapsed was expressed by scores with visual judgment. The state of occurrence of wrinkles was evaluated with the rating described below. • 0: No wrinkle • 1: shallow wrinkles • 2: clear wrinkles • 3: Deep wrinkles The state of occurrence of wrinkles was expressed by the scores at intervals of 0.5. A larger score represents deeper wrinkles. The mean value and the standard deviation of each group were calculated. The results illustrated in FIG. 5 were obtained.
Thereafter, the replicas of the dorsal section of the mouse were analyzed by use of a wrinkle analyzing apparatus (supplied by Hamano Engineering), and the wrinkle area (%) was calculated. A low wrinkle area percentage represents that the wrinkle formation has been suppressed. The results illustrated in FIG. 6 were obtained.

ADAM enzyme = assay: Screening of ADAM activity inhibiting substance: TPA-induced HB-EGF-AP release from HB-EGF-AP/HT-1080 cells; format: cell-based, human; conditions: 60 nM TPA, 60 minutes
Protocol: Firstly, the screening of a compound having the ADAM enzyme inhibiting activity was performed by use of HB-EGF-AP/HT-1080 (human fibrosarcoma-derived cultured cells HT-1080 having been modified so as to achieve forcible expression of a fusion protein, in which heat-resistant alkaline phosphatase (AP) has been added to an N terminal of human HB-EGF). On the surfaces of the cells of the used cell strain HB-EGF-AP/HT-1080, the HB-EGF entire length molecule is expressed in the form fused with the alkaline phosphatase. In cases where the cells are excited by a phorbol ester, the ADAM enzyme on the cell membrane surfaces is activated to cut the HB-EGF molecule. Since alkaline phosphatase has been bound to HB-EGF having been cut into the released form, in cases where the alkaline phosphatase activity in a culture supernatant is measured, the ADAM enzyme inhibiting activity of the compound is capable of being measured indirectly.
Specifically, HB-EGF-AP/HT-1080, in which the number of cells had been adjusted at 2.0×10^5 cells/ml, was sowed at a rate of 0.2 ml/well to a 96-well culture micro-plate and was cultured overnight at a temperature of 37° C. […] After the incubation was performed at the room temperature for two hours under a light blocking condition, the absorbance in each well at the wavelength of 405 nm was measured again. […]

In the case of `COc1ccc(S(=O)(=O)N(Cc2cccnc2)[C@@H](C(=O)NO)C(C)C)cc1` [CGS27023A], the “Dermal hyperplasia suppressing effects” value [1] is reported as “Δ”, the “Epidermal hyperplasia suppressing effects” value [1] is reported as “Δ” and the Wrinkling suppressing effects [1] is reported as “Δ”. For the same compound, the “hyperplasia of the epidermis and the dermis (in words)” value (“hyperplasia … (in words)” for short) [1] was “not capable of suppressing the hyperplasia of the epidermis and the dermis”, the “wrinkle formation (in words)” value [1] was “not capable of suppressing the wrinkle formation at all” and the “wrinkle formation preventing effects (in words)” value (Photo-aged mouse model) was “exhibited the wrinkle formation preventing effects”.

`CC(C)C[C@H](CC(=O)NO)C(=O)N[C@@H](Cc1ccc2ccccc2c1)C(=O)N[C@@H](C)C(=O)NCCN` [TAPI-1, N—(R)-(2-(Hydroxyaminocarbonyl)methyl)-4-Methylpentanoyl-L-Nal-L-Alanine 2-Aminoethyl amide] was tested, and the “Dermal hyperplasia suppressing effects” value [1] was “∘”, the “Epidermal hyperplasia suppressing effects” value [1] was “∘” and the Wrinkling suppressing effects [1] was “∘”. The “hyperplasia … (in words)” value [1] was “markedly suppressed the hyperplasia of the epidermis and the dermis”, the “wrinkle formation (in words)” value [1] was “suppressed the wrinkle formation” and the “mean value of the wrinkle score (visual judgment, 0 no wrinkle to 3 deep wrinkles)” value [2] was 0.43. The “mean value of the wrinkle area (%) versus vehicle” value [2] was “significantly lower”.

In the case of `COc1ccc(C(=O)NO)cc1` [4-Methoxybenzohydroxamic acid], the “Inhibition rate (%) of HB-EGF release” value (ADAM enzyme; concentration 10 μg/ml) is reported as 14.8%, the “Inhibition rate (%) of HB-EGF release” value (ADAM enzyme; concentration 50 μg/ml) is reported as 55.8% and the “mean value of the wrinkle score (visual judgment, 0 no wrinkle to 3 deep wrinkles)” value [2] is reported as 0.91. The “mean value of the wrinkle area (%) versus vehicle” value [2] was “significantly lower”.

For `OCC(O)CO` [Glycerol], the “Dermal hyperplasia suppressing effects” value [1] was “Δ”, the “Epidermal hyperplasia suppressing effects” value [1] was “x” and the Wrinkling suppressing effects [1] was “Δ”. For the same compound, the “hyperplasia … (in words)” value [1] was “not capable of suppressing the hyperplasia of the epidermis and the dermis” and the “wrinkle formation (in words)” value [1] was “not capable of suppressing the wrinkle formation at all”.

With `CCCCCCCC/C=C\CCCCCCCC(=O)O` [Oleic acid] the “Dermal hyperplasia suppressing effects” value [1] was “x”, the “Epidermal hyperplasia suppressing effects” value [1] was “x” and the Wrinkling suppressing effects [1] was “x”. For the same compound, the “hyperplasia … (in words)” value [1] was “accelerated the hyperplasia of the epidermis and the dermis” and the “wrinkle formation (in words)” value [1] was “promoted the wrinkle formation”.
